Laboratory results from patent publication US20080287398A1, “COLD MENTHOL RECEPTOR-1 ANTAGONISTS” (priority 2007, published 2008).
Values joined by “and” are separate entries in the source; they are usually repeats but may differ in a detail not shown here. Equal entries are not always repeated.

Target: T1, canine TRPM8 (Canis lupus familiaris, UniProt Q1A7N1)
T1 construct: expressed in transfected cells
Assay: In vitro canine TRPM8 functional assay (Ca2+-sensitive dye, FLIPR/FDSS, icilin activation)
Assay type: cell-based
Conditions: HEK293 cells expressing canine TRPM8, icilin activation; for % I (1 μM): 1 μM compound; for IC50: eight-point dose-response, read-out: IC50; for % I (0.5 μM): 0.5 μM compound
Procedure: The functional activity of compounds of Formula (I) was determined by measuring changes in intracellular calcium concentration using a Ca^2+-sensitive fluorescent dye. The changes in fluorescent signal were monitored by a fluorescence plate reader, either a FLIPR™ (Molecular Devices) or FDSS (Hamamatsu).
HEK293 cells stably expressing canine TRPM8 were routinely grown as monolayers in Dulbecco's minimum essential medium supplemented with 10% FBS, 1 mM L-glutamine, 100 units/mL penicillin, 100 ug/mL streptomycin and 400 μg/mL G418. Cells were maintained in 5% CO2 at 37° C. At 24 hrs prior to assay, cells were seeded in clear-base poly-D-lysine coated 384-well plates (BD Biosciences, NJ, USA) at a density of 5,000 cells per well in culture medium and grown overnight in 5% CO2 at 37° C. On assay day, growth media was removed and cells were loaded with Calcium 3 Dye (Molecular Devices) for 35 min at 37° C., under 5% CO2 and then for 25 min at room temperature and atmosphere. Subsequently, cells were tested for agonist-induced increases in intracellular Ca^2+ levels using FLIPR™ or FDSS. Cells were challenged with a compound of Formula (I) (at varying concentrations) and intracellular Ca^2+ was measured for 5 min prior to the addition of icilin to all wells to achieve a final concentration which produces approximately an 80% maximal response.
Basal FI was subtracted prior to normalizing data to percent of maximal response. Curves were generated using the average of quadruplicate wells for each data point, were analyzed using nonlinear regression of either sigmoidal dose response or sigmoidal dose response (variable slope). Finally, the EC50 and IC50 values were calculated with the best-fit dose curve determined by GraphPad Prism.

T1 sequence (Q1A7N1 1-1104): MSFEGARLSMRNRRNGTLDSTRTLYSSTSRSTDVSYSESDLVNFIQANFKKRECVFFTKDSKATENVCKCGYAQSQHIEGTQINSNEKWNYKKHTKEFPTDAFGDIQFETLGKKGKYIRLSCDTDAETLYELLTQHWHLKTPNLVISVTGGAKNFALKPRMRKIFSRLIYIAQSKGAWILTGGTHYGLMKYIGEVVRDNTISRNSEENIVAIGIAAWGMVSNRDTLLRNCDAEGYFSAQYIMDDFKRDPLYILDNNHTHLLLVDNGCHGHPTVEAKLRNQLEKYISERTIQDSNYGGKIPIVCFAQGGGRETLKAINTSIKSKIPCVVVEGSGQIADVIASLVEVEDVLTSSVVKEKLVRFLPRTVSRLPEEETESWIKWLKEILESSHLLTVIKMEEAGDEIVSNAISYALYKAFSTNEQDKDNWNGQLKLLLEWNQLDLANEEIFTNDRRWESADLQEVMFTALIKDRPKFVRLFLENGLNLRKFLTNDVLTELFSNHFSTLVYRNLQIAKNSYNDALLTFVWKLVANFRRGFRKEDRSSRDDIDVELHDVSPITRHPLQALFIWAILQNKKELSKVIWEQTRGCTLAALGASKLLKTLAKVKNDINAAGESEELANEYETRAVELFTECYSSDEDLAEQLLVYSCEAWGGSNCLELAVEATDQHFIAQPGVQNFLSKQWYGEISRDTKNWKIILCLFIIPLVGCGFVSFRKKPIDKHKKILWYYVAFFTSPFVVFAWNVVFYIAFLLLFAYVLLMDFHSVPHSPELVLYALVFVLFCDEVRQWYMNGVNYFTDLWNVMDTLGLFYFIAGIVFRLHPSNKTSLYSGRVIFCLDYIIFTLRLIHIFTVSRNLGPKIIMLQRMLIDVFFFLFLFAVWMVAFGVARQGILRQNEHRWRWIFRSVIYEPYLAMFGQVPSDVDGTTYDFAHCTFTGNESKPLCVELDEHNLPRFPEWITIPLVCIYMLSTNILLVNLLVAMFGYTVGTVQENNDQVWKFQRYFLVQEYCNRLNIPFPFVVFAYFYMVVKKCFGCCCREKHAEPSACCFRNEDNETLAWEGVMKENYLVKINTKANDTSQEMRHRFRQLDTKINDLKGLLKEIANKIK

Compound | % I (1 μM) | % I (5 μM) (5 μM compound) | IC50 | % I (0.5 μM)
CCOP(=O)(Cc1cc2ccccc2s1)OCc1ccccc1Cl (racemic) [Cpd 105] | 48% | 100% | 1010 nM | –
CCOP(=O)(OCC)C(Cc1cccc(Cl)c1F)c1sc2ccccc2c1Br (racemic) [Cpd 143] | – | – | 67 nM | 101%
CCOP(=O)(OCC)C(Cc1ccc(C(F)(F)F)c(F)c1)c1sc2ccccc2c1Br (racemic) [Cpd 144] | – | – | 58 nM | 101%
CCOP(=O)(OCC)C(Cc1cccc(OC(F)(F)F)c1)c1sc2ccccc2c1Br (racemic) [Cpd 145] | – | – | 119 nM and 116 nM | 103% and 102%
CCOP(=O)(OCC)C(Cc1cc(C(F)(F)F)ccc1F)c1sc2ccccc2c1Br (racemic) [Cpd 146] | – | – | 100 nM | 103%
CCOP(=O)(OCC)C(Cc1ccccc1Cl)c1sc2ccccc2c1Br (racemic) [Cpd 147] | – | – | 125 nM | 103%
CCOP(=O)(OCC)C(Cc1cc(C(F)(F)F)ccc1Cl)c1sc2ccccc2c1Br (racemic) [Cpd 148] | – | – | 172 nM | 103%
CCOP(=O)(OCC)C(Cc1ccc(OC(F)(F)F)c(Cl)c1)c1sc2ccccc2c1Br (racemic) [Cpd 149] | – | – | 60 nM | 103%
CCOP(=O)(OCC)C(Cc1ccc(C(F)(F)F)cc1F)c1sc2ccccc2c1Br (racemic) [Cpd 150] | – | – | 90 nM | 103%
CCOP(=O)(OCC)C(Cc1cccc(C(F)(F)F)c1Cl)c1sc2ccccc2c1Br (racemic) [Cpd 151] | – | – | 120 nM | 103%
CCOP(=O)(OCC)C(Cc1ccc(OC)c(C(F)(F)F)c1)c1sc2ccccc2c1Br (racemic) [Cpd 152] | – | – | 54 nM and 50 nM | 102% and 92%
CCOP(=O)(OCC)C(Cc1ccc(SC(F)(F)F)cc1)c1sc2ccccc2c1Br (racemic) [Cpd 153] | – | – | 43 nM | 103%
CCOP(=O)(OCC)C(Cc1ccc(C(F)(F)F)cc1)c1sc2ccccc2c1Br (racemic) [Cpd 154] | – | – | 27 nM | 103%
COc1cc(CC(c2sc3ccccc3c2Br)P(=O)(OC(C)C)OC(C)C)ccc1F (racemic) [Cpd 157] | – | – | – | 103% and 98%
CCOP(=O)(OCC)C(Cc1ccc(OC)c(F)c1)c1sc2ccccc2c1Br (racemic) [Cpd 158] | – | – | 59 nM | 101%
COc1ccc(CC(c2sc3ccccc3c2Br)P(=O)(OC(C)C)OC(C)C)cc1F (racemic) [Cpd 159] | – | – | 36 nM | 103%
CCOP(=O)(OCC)C(Cc1c(F)c(F)c(OC)c(F)c1F)c1sc2ccccc2c1Br (racemic) [Cpd 160] | – | – | 60 nM | 87%
COc1c(F)c(F)c(CC(c2sc3ccccc3c2Br)P(=O)(OC(C)C)OC(C)C)c(F)c1F (racemic) [Cpd 161] | – | – | 19 nM | 103%
CCOP(=O)(OCC)C(Cc1cccc(OC)c1F)c1sc2ccccc2c1Br (racemic) [Cpd 162] | – | – | 32 nM | 103%
COc1ccc(CC(c2sc3ccccc3c2Br)P(=O)(OC(C)C)OC(C)C)c(F)c1 (racemic) [Cpd 163] | – | – | 20 nM | 103%
CCOP(=O)(OCC)C(Cc1cc(OC)c(Cl)cc1F)c1sc2ccccc2c1Br (racemic) [Cpd 164] | – | – | 82 nM | 94%
COc1cc(CC(c2sc3ccccc3c2Br)P(=O)(OC(C)C)OC(C)C)c(F)cc1Cl (racemic) [Cpd 165] | – | – | 86 nM | 102%
CC(C)OP(=O)(OC(C)C)C(Cc1cccc(Cl)c1)c1sc2ccccc2c1Br (racemic) [Cpd 166] | 103% | – | 18 nM and 14 nM | 102%
CC(C)OP(=O)(OC(C)C)C(Cc1ccc(Cl)c(C(F)(F)F)c1)c1sc2ccccc2c1Cl (racemic) [Cpd 167] | – | – | 97 nM | 104%

Compound | % I (1 μM) | % I (5 μM) (5 μM compound) | IC50 | % I (0.5 μM)
CC(C)OP(=O)(OC(C)C)C(Cc1cccc(C(F)(F)F)c1F)c1sc2ccccc2c1Cl (racemic) [Cpd 168] | – | – | 76 nM | 104%
CC(C)OP(=O)(OC(C)C)C(Cc1cc(F)cc(C(F)(F)F)c1)c1sc2ccccc2c1Cl (racemic) [Cpd 169] | – | – | 96 nM | 104%
CC(C)OP(=O)(OC(C)C)C(Cc1cccc(C(F)(F)F)c1)c1sc2ccccc2c1Cl (racemic) [Cpd 170] | – | – | 73 nM | 103%
CC(C)OP(=O)(OC(C)C)C(Cc1cc(C(F)(F)F)cc(C(F)(F)F)c1)c1sc2ccccc2c1Cl (racemic) [Cpd 171] | – | – | 221 nM | 95%
CC(C)OP(=O)(OC(C)C)C(Cc1cc(C(F)(F)F)ccc1F)c1sc2ccccc2c1Cl (racemic) [Cpd 172] | – | – | 105 nM | 104%
CC(C)OP(=O)(OC(C)C)C(Cc1ccccc1C(F)(F)F)c1sc2ccccc2c1Cl (racemic) [Cpd 173] | – | – | 140 nM | 103%
CC(C)OP(=O)(OC(C)C)C(Cc1ccc(F)c(F)c1)c1oc2cccc(F)c2c1Br (racemic) [Cpd 205] | 101% | – | 50 nM | –
CCOP(=O)(OCC)C(Cc1ccc(F)c(F)c1)c1oc2cccc(F)c2c1Br (racemic) [Cpd 206] | 100% | – | 98 nM | –
CC(C)OP(=O)(OC(C)C)C(Cc1ccc(F)c(F)c1)c1sc2ncccc2c1Br (racemic) [Cpd 207] | – | – | 51 nM | 99%
CCOP(=O)(OCC)C(Cc1ccc(F)c(F)c1)c1sc2ccccc2c1-c1ccsc1 (racemic) [Cpd 208] | – | – | 104 nM | 104%
COCCOCCOP(=O)(OCCOCCOC)C(Cc1ccc(F)c(F)c1)c1sc2ccccc2c1Br (racemic) [Cpd 210] | – | – | – | 62%
CC(C)CCOP(=O)(OCCC(C)C)C(Cc1ccc(F)c(F)c1)c1sc2ccccc2c1Br (racemic) [Cpd 211] | – | – | 95 nM | 97%
CC(=O)OCCOP(=O)(OCCOC(C)=O)C(Cc1ccc(F)c(F)c1)c1sc2ccccc2c1Br (racemic) [Cpd 213] | – | – | 202 nM | 100%
CCOP(=O)(OCC)C(Cc1ccc(F)c(F)c1)c1sc2ccccc2c1-c1ccccc1O (racemic) [Cpd 215] | – | – | 85 nM | 101%
CCOP(=O)(OCC)C(Cc1ccc(F)c(F)c1)c1sc2ccccc2c1-c1ccccc1F (racemic) [Cpd 216] | – | – | 126 nM | 100%
CCOP(=O)(OCC)C(Cc1ccc(F)c(F)c1)c1sc2ccccc2c1-c1cccc(C(N)=O)c1 (racemic) [Cpd 218] | – | – | 483 nM | 79%
CCOP(=O)(OCC)C(Cc1ccc(F)c(F)c1)c1sc2ccccc2c1-c1cccc(C(=O)OC)c1 (racemic) [Cpd 219] | – | – | – | 68%
CCOP(=O)(OCC)C(Cc1ccc(F)c(F)c1)c1sc2ccccc2c1-c1ccc(F)cc1 (racemic) [Cpd 220] | – | – | 207 nM | 101%
CC(C)OP(=O)(OC(C)C)C(Cc1ccc(F)c(C(F)(F)F)c1)c1sc2cccc(F)c2c1Br (racemic) [Cpd 222] | – | – | 33 nM | 103%
CCOP(=O)(OCC)C(Cc1ccc(F)c(C(F)(F)F)c1)c1sc2cccc(F)c2c1Br (racemic) [Cpd 223] | – | – | 52 nM | 102%
CCOP(=O)(OCC)C(Cc1ccc(F)c(F)c1)c1sc2cccc(F)c2c1Br (racemic) [Cpd 224] | – | – | 44 nM | 102%
CCOP(=O)(OCC)C(Cc1ccc(O)c(F)c1)c1sc2ccccc2c1Br (racemic) [Cpd 226] | – | – | – | 34%
CC(C)OP(=O)(OC(C)C)C(Cc1ccc(O)c(F)c1)c1sc2ccccc2c1Br (racemic) [Cpd 227] | – | – | – | 52%
